Measurements published in patent publication US12383531B2, “PLA2 inhibitors for treatment of pathological conditions caused by hymenoptera envenomation, such as hemolysis, cerebral edema, and acute kidney injury” (Ophirex, Inc., priority 2016, dated 2025).
Entries after “also recorded” stand apart in the source; their conditions may differ.

Legend:
[1] = test system: A. contortrix venom sPLA2; assay: sPLA2 chromogenic inhibition assay, A. contortrix venom; format: biochemical; conditions: chromogenic sPLA2 assay after 60 of incubation, read-out: IC50 for each venom inhibitor
V. berus venom sPLA2 = assay: sPLA2 chromogenic inhibition assay, V. berus venom; format: biochemical; conditions: chromogenic sPLA2 assay after 60 of incubation, read-out: IC50 for each venom inhibitor
[2] = test system: C. terrificus venom sPLA2; assay: sPLA2 chromogenic inhibition assay, C. terrificus venom; format: biochemical; conditions: chromogenic sPLA2 assay after 60 of incubation, read-out: IC50 for each venom inhibitor
bee venom sPLA2 [3] = molecular target: T1, bee venom sPLA2 (Apis mellifera, UniProt P00630); assay: biochemical; format: biochemical
T1 sequence (P00630 34-167 limits assumed): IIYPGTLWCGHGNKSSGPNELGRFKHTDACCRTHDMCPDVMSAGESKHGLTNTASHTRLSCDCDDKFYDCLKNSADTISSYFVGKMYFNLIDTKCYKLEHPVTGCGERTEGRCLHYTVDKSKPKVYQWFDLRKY

[4] = test system: venous human blood incubated with Boomslang (Dispholidus typus) venom; assay: Hemolysis of ex vivo human blood treated with Boomslang venom (FIG. 5B); format: cell-based; conditions: Compound 4 1 uM with or without soluble simvastatin 1 uM, 90 minutes
[5] = test system: histamine production or release in human blood; assay: Plasma histamine in human blood; format: cell-based; conditions: human blood from a donor prone to LRR; 10 uM
Protocol: In this example, 3 cc human blood from a donor prone to LRR was collected and shipped to Quest on ice pursuant to Quest collection protocol 36586 and incubated with (a) Mannitol+Compound 4 (10 uM), (b) Varespladib (10 uM), or (c) Mannitol alone (excipient). Samples were processed for plasma histamine levels, compared with the Mannitol-only control.

[6] = test system: boomslang venom or bee venom; assay: Venom-induced acute kidney injury in mice, boomslang venom or bee venom (FIG. 7); format: in vivo, mouse; conditions: sublethal envenomation; single dose at same time as venom; 24 hours
C. atrox venom MP = C. atrox venom MP inhibition; format: biochemical; conditions: 10 μM
E. carinatus venom MP = E. carinatus venom MP inhibition; format: biochemical; conditions: 10 μM
[7] = test system: Snake venom metalloprotease, C. atrox and E. carinatus; assay: Snake venom metalloprotease inhibition for C. atrox and E. carinatus; format: biochemical; conditions: 10 μM; range over both venoms
M. fulvius venom sPLA2 = M. fulvius venom sPLA2 inhibition; format: biochemical; conditions: 10 μM
C. atrox venom sPLA2 = assay: sPLA2 chromogenic inhibition assay, C. atrox venom; format: biochemical; conditions: chromogenic sPLA2 assay after 60 of incubation, read-out: IC50 for each venom inhibitor
[8] = test system: C. adamanteus venom sPLA2; assay: sPLA2 chromogenic inhibition assay, C. adamanteus venom; format: biochemical; conditions: chromogenic sPLA2 assay after 60 of incubation, read-out: IC50 for each venom inhibitor
V. russelli venom sPLA2 = assay: sPLA2 chromogenic inhibition assay, V. russelli venom; format: biochemical; conditions: chromogenic sPLA2 assay after 60 of incubation, read-out: IC50 for each venom inhibitor
bee venom sPLA2 [9] = molecular target: T1, bee venom sPLA2; conditions: cited from earlier work
bee venom = assay: Survival of mice envenomated with bee venom; format: in vivo, CD-1 mice; conditions: 5 mice; bee venom 5 mg/kg IV; 25 mg/kg varespladib SQ immediately after envenomation
[10] = test system: venous human blood incubated with M. Fulvius venom; assay: Hemolysis of ex vivo whole human blood treated with M. Fulvius venom (FIG. 5A); format: cell-based; conditions: inhibitor 1 uM with or without soluble simvastatin 1 uM, 90 minutes
[11] = test system: whole bee (Apis mellifera) venom; assay: Acute kidney injury in mice after whole bee venom (FIG. 8); format: in vivo, mouse; conditions: single dose Varespladib (LY315920) with bee venom, then oral methylvarespladib (LY333013) ad libitum in diet; kidneys examined 36 hours

Row | SMILES | IC50 [1] [nM] | IC50 (V. berus venom sPLA2) [nM] | inhibitory activity in vitro against bee venom sPLA2 (bee venom sPLA2 [3]) | C. atrox venom MP inhibition % effect (C. atrox venom MP) [%] | E. carinatus venom MP inhibition % effect (E. carinatus venom MP) [%] | Snake venom metalloprotease inhibition for C. atrox and E. carinatus [7] [%] | M. fulvius venom sPLA2 inhibition % effect (M. fulvius venom sPLA2) [%] | other results
1 | NC(=O)c1ccc(Cc2ccccc2)cc1-c1cccc(CCC(=O)O)c1 [Compound 4, 3-(5′-Benzyl-2′-carbamoylbiphenyl-3-yl) propanoic acid] | 88 | 170 | very weak inhibitory activity; also recorded: virtually no effect | – | – | – | – | IC50 [2]: 670 nM; IC50 (bee venom sPLA2 [3]): > 70000 nM; anti-hemolytic activity [4]: anti-hemolytic activity; Plasma Histamine [5]: 10.1 ng/mL; signs of acute kidney injury (gross kidney appearance) [6]: comparably minimal signs of acute kidney injury
2 | O=C(O)C[C@H](O)C[C@H](O)/C=C/c1c(C2CC2)nc2ccccc2c1-c1ccc(F)cc1 [ITAVASTATIN, Pitavastatin] | – | – | – | 5.09 | 0.48 | 0.48 to 5.09 | – | –
3 | CC[C@H](C)C(=O)O[C@H]1C[C@@H](C)C=C2C=C[C@H](C)[C@H](CC[C@@H]3C[C@@H](O)CC(=O)O3)[C@H]21 [LOVASTATIN, Lovastatin] | – | – | – | – | −1.89 | – | 11.09 | –
4 | CC[C@H](C)C(=O)O[C@H]1CCC=C2C=C[C@H](C)[C@H](CC[C@@H]3C[C@@H](O)CC(=O)O3)[C@H]21 [MEVASTATIN, Mevastatin] | – | – | – | 7.17 | −1.89 to 3.82 | −1.89 to 7.17 | 16.29 | –
5 | CCc1c(C(=O)C(N)=O)c2c(OCC(=O)OC)cccc2n1Cc1ccccc1 [Me-Varespladib] | 430 | 170 | very weak inhibitory activity; also recorded: not potent inhibitors | – | – | – | – | IC50 (C. atrox venom sPLA2): 200 nM; IC50 [8]: 360 nM; IC50 (V. russelli venom sPLA2): 80 nM; performance in vitro against bee venom sPLA2 in earlier studies (bee venom sPLA2 [9]): performed extremely poorly
6 | CC[C@H](C)C(=O)O[C@H]1C[C@H](O)C=C2C=C[C@H](C)[C@H](CC[C@@H](O)C[C@@H](O)CC(=O)O)[C@H]21 [PRAVASTATIN, Pravastatin] | – | – | – | 2.27 | 4.02 | 2.27 to 4.02 | 6.9 | –
7 | CCC(C)(C)C(=O)O[C@H]1C[C@@H](C)C=C2C=C[C@H](C)[C@H](CC[C@@H]3C[C@@H](O)CC(=O)O3)[C@H]21 [SIMVASTATIN, Simvastatin] | – | – | – | 4.03 | −0.20 to 4.61 | −0.20 to 4.61 | 16.41 | –
8 | CCc1c(C(=O)C(N)=O)c2c(OCC(=O)O)cccc2n1Cc1ccccc1 [Varespladib, ((3-(2-Amino-1,2-dioxoethyl)-2-ethyl-1-(phenylmethyl)-1H-indol-4-yl)oxy)acetic acid] | 0.9 | 0.8 | very weak inhibitory activity; also recorded: not potent inhibitors | – | – | – | – | IC50 (C. atrox venom sPLA2): 0.7 nM; IC50 [8]: 0.8 nM; IC50 (V. russelli venom sPLA2): 0.4 nM; IC50 [2]: 21 nM; IC50 (bee venom sPLA2 [3]): 12000 to 18000 nM; higher IC50 against bee venom PLA2 as compared to snake venom PLA2 (bee venom sPLA2 [3]): 5-45,000 fold; survival compared to controls (bee venom): uniformly prolonged survival; anti-hemolytic activity (Hgb absorption spectra) [10]: remained unchanged with the addition of statin; Plasma Histamine [5]: 5.1 ng/mL; signs of acute kidney injury (gross kidney appearance) [6]: minimal signs of acute kidney injury; protection from AKI (pigment nephropathy, hyperemia) [11]: excellent protection from AKI; performance in vitro against bee venom sPLA2 in earlier studies (bee venom sPLA2 [9]): performed extremely poorly
